# From patent US8178658B2 (Dow AgroSciences, LLC, priority 2008, dated 2012)
# Key:
# [1] = test system: beet armyworm (BAW; Spodoptera exigua: Lepidoptera); experiment: 96-well microtiter plate-based high throughput (HTS) diet bioassay on beet armyworm (BAW HTS); assay type: in vivo; details: for BAW HTS: BAW eggs, 12 μg test compound per well, mortality at 6 d post-treatment, mortality class; for pest or weed control at 12 µg/well, 12 µg/well: Spodoptera exigua, 144 h, read-out: BAW HTS
# Summary of the method: (§1)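 HTS: eggs on diet topped with 12 μg cpd/well; dark, 29° C; mortality day 6; mean of 6 reps. Tray: 3–5 L2 larvae/well; diet dosed 50 μg/cm^2; 25° C, 14:10 L:D; 6 d; mean of 8 wells. Scored as ≥50% mortality or not.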
# [2] = test system: beet armyworm (BAW; Spodoptera exigua: Lepidoptera); experiment: 128-well diet tray assay on beet armyworm (BAW 50); assay type: in vivo; details: for BAW 50 ug/cm2: 128-well diet tray assay, 50 μg/cm^2 of test compound on diet, second instar BAW larvae, mortality class; for pest or weed control at 50 µg/cm2, 50 µg/cm2: Spodoptera exigua, 144 h, read-out: BAW 50 ug/cm2
# Summary of the method: as §1
# [3] = 96-well microtiter plate HTS diet assay
SMILES,BAW HTS ([1]; 96-well HTS diet assay),"BAW HTS [1, 3]",BAW 50 ug/cm2 [2],"pest or weed control at 12 µg/well, 12 µg/well [1] [%]","pest or weed control at 50 µg/cm2, 50 µg/cm2 [2] [%]"
CO[C@@H]1[C@@H](OC)[C@H](C)O[C@H](OC(=O)Nc2ccc(-c3nc(C)n(-c4ccc(OC(F)(F)F)cc4)n3)cc2)[C@@H]1OC [Compound 195],B (either (1) the compound was tested and less than 50 percent mortality was observed or (2) the compound was not tested),B (either (1) the compound was tested and less than 50 percent mortality was observed or (2) the compound was not tested),A (the compound was tested and at least 50 percent mortality was observed),–,–
CO[C@@H]1[C@@H](OC)[C@H](C)O[C@@H](OC(=O)Nc2ccc(-c3ncn(-c4ccc(Oc5ccc(Cl)cc5)cc4)n3)cc2)[C@@H]1OC [Compound 196],A (the compound was tested and at least 50 percent mortality was observed),A (the compound was tested and at least 50 percent mortality was observed),A (the compound was tested and at least 50 percent mortality was observed),–,–
CCCCO[C@@H]1[C@@H](OC)[C@H](C)O[C@@H](OC(=O)Nc2ccc(-n3cnc(-c4ccc(C)cc4)n3)cc2)[C@@H]1OC [Compound 197],A (the compound was tested and at least 50 percent mortality was observed),A (the compound was tested and at least 50 percent mortality was observed),A (the compound was tested and at least 50 percent mortality was observed),–,–
CCCCO[C@@H]1[C@@H](OC)[C@H](C)O[C@@H](OC(=O)Nc2ccc(-n3cnc(-c4ccc(C(F)(F)F)cc4)n3)cc2)[C@@H]1OC [Compound 198],A (the compound was tested and at least 50 percent mortality was observed),A (the compound was tested and at least 50 percent mortality was observed),A (the compound was tested and at least 50 percent mortality was observed),–,–
CCCCO[C@@H]1[C@@H](OC)[C@H](C)O[C@H](OC(=O)Nc2ccc(-n3cnc(-c4ccc(C(F)(F)F)cc4)n3)cc2)[C@@H]1OC [Compound 199],A (the compound was tested and at least 50 percent mortality was observed),A (the compound was tested and at least 50 percent mortality was observed),A (the compound was tested and at least 50 percent mortality was observed),–,–
CO[C@@H]1[C@@H](OC)[C@H](C)O[C@@H](OC(=O)Nc2ccc(-c3ncn(-c4ccc(OC(F)(F)C(F)(F)F)cc4)n3)cc2)[C@@H]1OC [Compound 200],A (the compound was tested and at least 50 percent mortality was observed),A (the compound was tested and at least 50 percent mortality was observed),A (the compound was tested and at least 50 percent mortality was observed),–,–
"CCO[C@@H]1[C@@H](OC)[C@H](C)O[C@@H](OC(=O)Nc2ccc(-c3ncn(-c4ccc(OC(F)(F)C(F)(F)F)cc4)n3)cc2)[C@@H]1OC [Compound 201, {4-[1-(4-pentafluoroethyloxyphenyl)-1H-[1,2,4]triazol-3-yl]-phenyl}-carbamic acid (2S,3R,4R,5S,6S)-4-ethoxy-3,5-dimethoxy-6-methyl-tetrahydropyran-2-yl ester]",–,A (the compound was tested and at least 50 percent mortality was observed),A (the compound was tested and at least 50 percent mortality was observed),> 50,> 50
"CCO[C@@H]1[C@@H](OC)[C@H](C)O[C@H](OC(=O)Nc2ccc(-c3ncn(-c4ccc(OC(F)(F)C(F)(F)F)cc4)n3)cc2)[C@@H]1OC [Compound 202, {4-[1-(4-pentafluoroethyloxyphenyl)-1H-[1,2,4]triazol-3-yl]-phenyl}-carbamic acid (2R,3R,4R,5S,6S)-4-ethoxy-3,5-dimethoxy-6-methyl-tetrahydropyran-2-yl ester]",–,A (the compound was tested and at least 50 percent mortality was observed),A (the compound was tested and at least 50 percent mortality was observed),> 50,> 50
"CCO[C@@H]1[C@@H](OC)[C@H](C)O[C@@H](OC(=S)Nc2ccc(-c3ncn(-c4ccc(OC(F)(F)C(F)(F)F)cc4)n3)cc2)[C@@H]1OC [Compound 203, {4-[1-(4-pentafluoroethyloxy-phenyl)-1H-[1,2,4]triazol-3-yl]-phenyl}-thiocarbamic acid (2S,3R,4R,5S,6S)-4-ethoxy-3,5-dimethoxy-6-methyl-tetrahydropyran-2-yl ester]",–,A (the compound was tested and at least 50 percent mortality was observed),A (the compound was tested and at least 50 percent mortality was observed),> 50,> 50
C=CCO[C@@H]1[C@@H](OC)[C@H](C)O[C@@H](OC(=O)Nc2ccc(-c3ncn(-c4ccc(OC(F)(F)C(F)(F)F)cc4)n3)cc2)[C@@H]1OC [Compound 204],A (the compound was tested and at least 50 percent mortality was observed),A (the compound was tested and at least 50 percent mortality was observed),A (the compound was tested and at least 50 percent mortality was observed),–,–
C=CCO[C@@H]1[C@@H](OC)[C@H](C)O[C@@H](OC(=O)Nc2ccc(-c3ncn(-c4ccc(OC(F)(F)F)cc4)n3)cc2)[C@@H]1OC [Compound 205],A (the compound was tested and at least 50 percent mortality was observed),A (the compound was tested and at least 50 percent mortality was observed),A (the compound was tested and at least 50 percent mortality was observed),–,–
CCO[C@@H]1[C@@H](OCC)[C@H](C)O[C@@H](OC(=O)Nc2ccc(-c3ncn(-c4ccc(OC(F)(F)C(F)(F)F)cc4)n3)cc2)[C@@H]1OCC [Compound 206],A (the compound was tested and at least 50 percent mortality was observed),A (the compound was tested and at least 50 percent mortality was observed),A (the compound was tested and at least 50 percent mortality was observed),–,–
"CCCO[C@@H]1[C@@H](OC)[C@H](C)O[C@@H](OC(=O)Nc2ccc(-c3ncn(-c4ccc(OC(F)(F)C(F)(F)F)cc4)n3)cc2)[C@@H]1OC [Compound 207, {4-[1-(4-pentafluoroethyloxyphenyl)-1H-[1,2,4]triazol-3-yl]-phenyl}-carbamic acid (2S,3R,4R,5S,6S)-4-propoxy-3,5-dimethoxy-6-methyl-tetrahydropyran-2-yl ester]",–,B (either (1) the compound was tested and less than 50 percent mortality was observed or (2) the compound was not tested),A (the compound was tested and at least 50 percent mortality was observed),< 50,> 50
CO[C@@H]1[C@@H](OC)[C@H](C)O[C@H](OC(=O)Nc2ccc(-c3ncn(-c4ccc(OC(F)(F)C(F)(F)F)cc4)n3)cc2)[C@@H]1OC [Compound 208],A (the compound was tested and at least 50 percent mortality was observed),A (the compound was tested and at least 50 percent mortality was observed),A (the compound was tested and at least 50 percent mortality was observed),–,–
CCCO[C@@H]1[C@@H](OC)[C@H](C)O[C@@H](OC(=O)Nc2ccc(-c3ncn(-c4ccc(OC(F)(F)F)cc4)n3)cc2)[C@@H]1OC [Compound 209],A (the compound was tested and at least 50 percent mortality was observed),A (the compound was tested and at least 50 percent mortality was observed),A (the compound was tested and at least 50 percent mortality was observed),–,–
CCO[C@@H]1[C@@H](OC)[C@H](C)O[C@H](OC(=O)Nc2ccc(-c3ncn(-c4ccc(OC(F)(F)F)cc4)n3)cc2)[C@@H]1OC [Compound 210],A (the compound was tested and at least 50 percent mortality was observed),A (the compound was tested and at least 50 percent mortality was observed),A (the compound was tested and at least 50 percent mortality was observed),–,–
CCCO[C@@H]1[C@@H](OC)[C@H](C)O[C@@H](OC(=O)Nc2ccc(-c3ncn(-c4ccc(OC(F)(F)C(F)(F)C(F)(F)F)cc4)n3)cc2)[C@@H]1OC [Compound 216],A (the compound was tested and at least 50 percent mortality was observed),A (the compound was tested and at least 50 percent mortality was observed),A (the compound was tested and at least 50 percent mortality was observed),–,–
CCO[C@@H]1[C@@H](OC)[C@H](C)O[C@@H](OC(=O)Nc2ccc(-c3nc(CC(C)C)n(-c4ccc(OC(F)(F)F)cc4)n3)cc2)[C@@H]1OC [Compound 219],B (either (1) the compound was tested and less than 50 percent mortality was observed or (2) the compound was not tested),B (either (1) the compound was tested and less than 50 percent mortality was observed or (2) the compound was not tested),A (the compound was tested and at least 50 percent mortality was observed),–,–
